From US12428403B2, “N-(heterocyclyl and heterocyclylalkyl)-3-benzylpyridin-2-amine derivatives as SSTR4 agonists” (Takeda Pharmaceutical Company Limited, priority 2020, dated 2025)

How the values were obtained:
SSTR1 = SSTR1 (Homo sapiens, UniProt P30872); experiment: biochemical;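 also: competitive binding to membranes of CHO-K1 cells overexpressing SSTR1, incubated 60 min at room temperature, radioactivity read by scintillation counting after filtration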
Protocol: SSTR1 I-125 Somatostatin Competition Binding Assay for Selectivity Versus SSTR1
Membranes from CHO-K1 cells overexpressing SSTR1 are purchased from Perkin Elmer (catalog number ES-520-M400UA). Test compounds are suspended in DMSO and then diluted in assay buffer (25 mM HEPES pH 7.4, 10 mM MgCl2, 1 mM CaCl2, 0.5% BSA) plus 0.4 nM I-125 labeled somatostatin (Perkin Elmer catalog number NEX389). […] Then 10 μg of SSTR1 membranes in 50 μL assay buffer are added per well. The plate is incubated for 60 minutes at room temperature. […] The contents of the assay plate are transferred to filters with a TomTech harvester and washed 5 times with 20 mM HEPES, 100 mM NaCl. […] The scintillator sheets are melted to the filters using a heat block. The filters are then read in a MicroBeta scintillation counter. Binding Ki curves are generated using Activity Base for Screening Data Management and the results are reported as pIC50.

SSTR4 [1] = target: T1, SSTR4 (Homo sapiens, UniProt P31391); experiment: SSTR4 I-125 somatostatin competition binding assay (CHO-K1 membranes); parameters: host or cells: CHO-K1; conditions: competition with I-125 labeled somatostatin, membranes from CHO-K1 overexpressing SSTR4; read-out: SSTR4 Binding pIC50 (converted)
From the text: SSTR4I-125 Somatostatin Competition Binding Assay
Membranes from CHO-K1 cells overexpressing SSTR4 are purchased from Perkin Elmer (catalog number ES-524-M400UA). […] The scintillator sheets are melted to filters using a heat block.

SSTR4 [2] = target: T1, SSTR4; experiment: cell-based
Protocol: This cell-based assay measures the ability of compounds to inhibit forskolin stimulated cAMP in CHO-K1 cells overexpressing SSTR4. CHO-K1 cells overexpressing SSTR4 (CHO-SSTR4) are purchased from DiscoveRx (product code 95-0059C2). The CHO-SSTR4 cells are maintained in F12K media with 10% Fetal Bovine Serum (Hyclone), 1% Pen/Strep (Life Technologies), and 800 μg/mL G418 (Life Technologies). To perform the assay, 3000 cells are plated per well in white 384-well plate (Corning 3570) in 50 complete media and the cells are allowed to attach for 16 hours in a 37° C., 5% CO2 incubator. The next day, the culture media is removed from the cells and the cells are washed (added then removed) with Krebs Ringer Buffer (ZenBio, KRB-1000 mL). Test compounds are suspended in DMSO and diluted in stimulation buffer: Krebs Ringer Buffer plus 0.5% BSA (Roche), 300 μM IBMX (Sigma), and 350 nM forskolin (Sigma). The cells are incubated in 10 μL compound/stimulation buffer for 30 minutes at room temperature. Cellular cAMP levels are detected with a HTRF LANCE Ultra cAMP kit (Perkin Elmer, catalog number TRF0264).
The assay is performed in accordance with the manufacturer's instructions. Five μL of diluted Eu-W8044 labeled streptavidin (dilution: 1:50 in cAMP Detection Buffer) is added to each well. Then 5 μL of diluted biotin cAMP (dilution: 1:150 in cAMP Detection Buffer) is added to each well. The plates are covered and allowed to incubate for 60 minutes at room temperature on a shaker. HTRF (665 nm/615 nm) is read on a Perkin Elmer ENVISION plate reader. The pEC50 values are generated using Activity Base for Screening Data Management.
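For EC50 in this document: CHO-K1 cells overexpressing SSTR4, reduction of forskolin-driven cAMP after 30 min compound exposure at room temperature, cAMP read by HTRF LANCE Ultra kit.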

T1 sequence (P31391 whole entry): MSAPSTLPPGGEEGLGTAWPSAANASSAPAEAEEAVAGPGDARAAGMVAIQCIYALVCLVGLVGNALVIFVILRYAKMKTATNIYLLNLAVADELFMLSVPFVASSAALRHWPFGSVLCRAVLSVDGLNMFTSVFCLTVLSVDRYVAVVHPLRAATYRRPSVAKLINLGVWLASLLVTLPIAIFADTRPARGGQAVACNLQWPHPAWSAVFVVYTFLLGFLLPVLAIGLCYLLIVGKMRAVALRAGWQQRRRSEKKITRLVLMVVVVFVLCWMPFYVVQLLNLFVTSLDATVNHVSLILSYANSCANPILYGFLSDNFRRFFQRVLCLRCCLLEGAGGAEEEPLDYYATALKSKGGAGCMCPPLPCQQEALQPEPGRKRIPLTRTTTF
Chain of SSTR1 (P30872 whole entry): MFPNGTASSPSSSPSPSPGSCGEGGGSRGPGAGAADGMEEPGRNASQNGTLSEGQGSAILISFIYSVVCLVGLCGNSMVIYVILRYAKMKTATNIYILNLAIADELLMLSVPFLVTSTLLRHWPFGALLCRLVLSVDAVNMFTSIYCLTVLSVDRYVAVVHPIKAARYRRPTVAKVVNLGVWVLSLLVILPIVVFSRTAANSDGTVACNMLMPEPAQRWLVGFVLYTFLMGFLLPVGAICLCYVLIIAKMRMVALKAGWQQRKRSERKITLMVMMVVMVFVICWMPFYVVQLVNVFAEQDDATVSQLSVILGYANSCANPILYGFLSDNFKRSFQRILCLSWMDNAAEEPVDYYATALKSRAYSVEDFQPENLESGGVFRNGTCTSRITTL

| SMILES | IC50 (SSTR1) [nM] | IC50 (SSTR4 [1]) [nM] | EC50 (SSTR4 [2]) [nM] |
| --- | --- | --- | --- |
| COc1cccc(Cc2nc3cccc(C)c3nc2NCCN2CCC2)c1 (single isomer, unassigned) [Example 4, N-(2-(azetidin-1-yl)ethyl)-3-(3-methoxybenzyl)-8-methylquinoxalin-2-amine] | 1550 | 38 | 63.1 |
| Cc1nnc([C@H](C)c2ccccc2)c(N[C@@H]2CCN(C)C2)n1 (single isomer, unassigned) [Example 149] | 12900 | 174 | 39.8 |
| Cc1nnc(C(C)c2ccccc2)c(NCCN2CCC2)n1 (stereo not drawn) [Example 143, N-(2-(azetidin-1-yl)ethyl)-3-methyl-6-(1-phenylethyl)-1,2,4-triazin-5-amine] | 10000 | 49 | 4.27 |
| Cc1nnc([C@H](C)c2ccc(F)cc2)c(N[C@@H]2CCN(C)C2)n1 (single isomer, unassigned) [Example 141] | 25700 | 93.3 | 21.4 |
